This note sets out measurements from patent publication US9206199B2, “Inhibitors of the renal outer medullary potassium channel” (Merck Sharp & Dohme Corp., priority 2011, dated 2015).

The target of one test is Kir1.1 (ROMK1) (Homo sapiens (Human), UniProt P48048). As to the kind of experiment: Electrophysiology Assay (IonWorks Quattro whole cell voltage clamp).
The target of another test is hROMK (hKir1.1) (Homo sapiens (Human), UniProt P48048). As to the kind of experiment: Thallium Flux Assay. The test is classed as cell-based. As to the method:
At >80% confluency, aspirate the media from the flask and rinse with 10 mL Calcium/Magnesium-free PBS. […] To dislodge the cell, gently bang the side of the flask with your hand. Triturate the cells completely and then transfer the cells to 25 mL complete media. Centrifuge at 1,500 rpm for 6 min followed by resuspension in complete growth media and determine cell concentration. […] Under ideal growth conditions and appropriate tissue culture practices, this cell line is stable for 40-45 passages. FluxOR Kit Components (Invitrogen F10017) • FluxOR™ Reagent (Component A) • FluxOR™ Assay Buffer (Component B)—10× Concentrate • PowerLoad™ Concentrate (Component C)—100× Concentrate • Probenecid (Component D)—Lyophilized sample is kept at −20° C. Water soluble, 100× after solubilization in 1 mL water. […] Store at 4° C. • Thallium sulfate (Tl2SO4) Concentrate (Component G)—50 mM in water. […]
The fluorescence intensity of wells containing 3 μM of a standard control ROMK inhibitor of the present invention is used to define the ROMK-sensitive component of thallium flux. Fluorescence in the presence of test compounds is normalized to control values to provide % fluorescence change.

Read-outs that look alike come from different tables or passages of the source.

One may read the IC50 as the midpoint of a concentration-inhibition curve.

Chain of hROMK (hKir1.1) (P48048 whole entry): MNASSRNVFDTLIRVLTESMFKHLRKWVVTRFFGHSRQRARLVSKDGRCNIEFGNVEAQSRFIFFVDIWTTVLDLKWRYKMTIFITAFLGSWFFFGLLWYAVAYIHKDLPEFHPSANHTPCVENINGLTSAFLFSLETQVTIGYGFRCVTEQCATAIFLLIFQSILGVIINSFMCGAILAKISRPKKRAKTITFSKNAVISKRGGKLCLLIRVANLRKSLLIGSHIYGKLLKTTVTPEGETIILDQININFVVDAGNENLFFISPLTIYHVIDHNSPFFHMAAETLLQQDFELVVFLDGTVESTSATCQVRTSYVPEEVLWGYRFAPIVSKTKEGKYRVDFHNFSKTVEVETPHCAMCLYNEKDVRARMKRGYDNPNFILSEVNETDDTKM
Chain of Kir1.1 (ROMK1) (P48048 whole entry): as above
Method for Kir1.1 (ROMK1): Chinese hamster ovary cells stably expressing Kir1.1 channels were maintained in T-75 flasks in cell culture media in a humidified 10% CO2 incubator at 37° C. Prior to an experiment, Kir1.1 expression was induced by overnight incubation with 1 mM sodium butyrate. […] After centrifugation, the cell pellet was resuspended in approximately 4.0 mL of bath solution and placed in the IonWorks instrument. The intracellular solution consisted of (in mM): 80 K gluconate, 40 KCl, 20 KF, 3.2 MgCl2, 3 EGTA, 5 Hepes, pH 7.4. Electrical access to the cytoplasm was achieved by perforation in 0.13 mg/mL amphotericin B for 4 min. […] Voltage protocols and current recordings were performed using the IonWorks HT software/hardware system. Currents were sampled at 1 kHz. No correction for liquid junction potentials was used. The test pulse, consisting of a 100 ms step to 0 mV from a holding potential of −70 mV, followed by a 100 ms voltage ramp from −70 mV to +70 mV, was applied before and after a 6 min compound incubation period. Test compounds were prepared by diluting DMSO stock solutions into the bath solution at 3× the final concentration and placed in the instrument in 96-well polypropylene plates. Current amplitudes were measured using the IonWorks software.

`O=C1OCCc2cc([C@@H]3CN4CCN(C(=O)Cc5ccc(-n6cnnn6)nc5)C[C@H]4CO3)ccc21` [Example 1] had an IC50 against Kir1.1 (ROMK1) of 60 nM.

As to `Cc1nc(-n2cnnn2)ccc1CC(=O)N1CCN2C[C@H](c3ccc(F)c(C#N)c3F)OC[C@@H]2C1` [Example 89, 2,6-difluoro-3-[(3S,9aS)-8-{[2-methyl-6-(1H-tetrazol-1-yl)pyridin-3-yl]acetyl}octahydropyrazino[2,1-c][1,4]oxazin-3-yl]benzonitrile], at hROMK (hKir1.1), the IC50 stood at 70 nM.

`N#Cc1cc([C@@H]2CN3CCN(C(=O)Cc4cnc(-n5cnnn5)nc4)C[C@H]3CO2)ccc1F` [Example 142, 2-fluoro-5-[(3R,9aS)-8-{[2-(1H-tetrazol-1-yl)pyrimidin-5-yl]acetyl}octahydropyrazino[2,1-c][1,4]oxazin-3-yl]benzonitrile]: the IC50 on hROMK (hKir1.1) (HEK293 cells stably expressing hROMK (hKir1.1), FLIPR-Tetra, read-out: Thallium Flux IC50) was determined as 100 nM.
